US5614548A, “Quaternary amine containing ether or ester lipid derivatives and therapeutic compositions” (priority 1994, dated 1997)
“And” between values parts separate entries of the source, which are not always exact repeats. Identical values can stand only once. Like-named read-outs stand apart in the source and are kept apart here.

Legend:
K562-4 cells = experiment: Cytostatic activity on K562-4 cells; assay type: cell-based; conditions: Homo sapiens; K562-4 (printed X562-4)
Procedure: (§1) All cells were grown in Eagle's minimum essential medium supplemented with 10% fetal bovine serum with the exception of HL-60 and K562-4 cells which were grown in RPMI 1640 medium supplemented with 10% fetal bovine serum. The KB and MH1 C1 cells, from a human nasopharyngeal carcinoma and rat hepatoma, respectively, were from American Type Culture Collection. The ChaGo cells, a human lung carcinoma, was generously provided by Dr. A. H. Tashjian. The human promyeloblastic leukemia cells, K562-4 were kindly supplied by Dr. Bismarck Lozzio. HL-60 cells, a human promyelocytic leukemia, and P388 cells, a mouse leukemia, were obtained from Dr. Y.-C. Cheng. The 77 cells were put into culture by us by excising the 7777, Morris hepatoma from a rat graciously supplied by the late Dr. H. P. Morris.
(§2) Cells were transferred or removed from monolayers for counting after a one or two minute incubation with 0.02% sodium ethylenediamine tetraacetate in phosphate-buffered saline to dislodge the cells. Flasks were seeded at a density of 1×10^3 cells per cm^2 or 2×10^4 per milliliter for suspension cultures. The HL-60 and K562-4 suspension cultures were used about 24 hours after seeding. The compounds to be tested were diluted to various concentrations and added to the monolayer cultures. All of the test compounds were dissolved in 10% dimethyl sulfoxide (DMSO) at concentrations that would give a final DMSO concentration of 0.1%. Control flasks contained 0.1% DMSO. Control cell replication was followed until approximately three doublings had occurred, and then all of the treated cells were counted.

KB cells = experiment: Cytostatic activity on KB cells; assay type: cell-based; conditions: Homo sapiens; KB cells, after controls doubled three times; read-out: IC50 KB
Procedure: as §1, §2
(§3) The KB cells represented cells with low alkyl cleavage activity (less than the detectable level of 0.1-0.2 units per milligram protein by our assay procedure) and the 77 cells represented cells similar to normal cells with relatively high alkyl cleavage activity (1.6 units per milligram of protein). Our value for the cleavage activity of cultured 77 cells agrees well with the value of 1.4 units per milligram of protein reported by Soodsma et al, Cancer Res. 30, 309 (1970), for freshly excised 7777 Morris hepatoma tissue. In further confirmation of our assay procedure, we obtained a value of 12.6±4.1 units per milligram of protein in excised rat liver compared to 7.3 units per milligram of protein in rat liver measured by Soodsma et al.

MH1 C1 cells = experiment: Cytostatic activity on MH1 C1 cells; assay type: cell-based, rat
Procedure: as §1, §2

77 cells = experiment: Cytostatic activity on 77 cells; assay type: cell-based, rat; conditions: for IC50: 77 cells, after controls doubled three times; for 77/KB: ratio of IC50 values ± standard error of the quotient
Procedure: as §1, §2, §3

ChaGo cells = experiment: Cytostatic activity on ChaGo cells; assay type: cell-based, human
Procedure: as §1, §2

HIV-1 [1] = experiment: HIV-1 plaque assay, inhibitor added 60 minutes after infection; assay type: cell-based, human immunodeficiency virus type 1 (HIV-1)
Description: (§4) Dextran sulfate was used as a positive control. […] Plaques were counted at five days after infection.
(§5) By way of further background, in our assay HIV-1 syncytial plaques are seen as large, multicellular foci (10 to 25 nuclei/syncytium) that appear either brown and granular or clear. Since the number of HIV-1 syncytial plaques correlates with reverse transcriptase (RT) and p24 core antigen activity in the HIV-1 infected cell overlay fluids, the syncytial plaque assay can be used to quantify the amount of infectious virus. Reverse transcriptase activity was assayed according to a described procedure (B. J. Poeisz et al., Proc. Natl. Acad. Sci. (U.S.A.) […], 7415 (1980)). The activity of p24 core antigen induced by HIV-1 infection of CEM-SS cells was measured spectrophotometrically using the commercial Abbott EIA.
(§6) Compound E inhibited HIV-1 plaque count 43%, 83%, and 91% at concentrations of 0.2, 0.4, and 2.0 μM, respectively, compared to untreated controls. […] In other experiments addition of 0.2, 0.4 and 2.0 μM Compound E starting sixty minutes after HIV-1 infection inhibited HIV-1 plaque formation 28%, 59% and 97% respectively, compared to untreated controls.
(§7) Next investigated were the correlations of EL analog structure with anti-HIV-l and anti-cell growth. The experimental method used six serial two-fold dilutions of EL that spanned concentrations above and below a concentration that inhibits HIV-1 plaque count, cell growth (^3 H-TdR uptake into cell DNA) or in vitro PKC activity by 50% (inhibitory concentration50 =IC50) compared to an appropriate mock treated control. Table 7 summarizes data on IC50 of phosphorus and non-phosphorus compounds for HIV-1 plaque formation and cell growth.
^1 Serial 2fold dilutions of compounds are used. HIV1 plaque formatio
is measured in CEMSS cell monolayers by having compound present starting
sixty minutes after virus infection. IC50 values for HIV1 plaque
formation are x ± one SD., N = 4. CEMSS cell growth is measured in […]

HIV-1 [2] = experiment: HIV-1 plaque assay, inhibitor added 30 minutes before infection; assay type: cell-based, human immunodeficiency virus type 1 (HIV-1)
Description: as §4, §5, §6

[3] = test system: HL60 human leukemia cell line; experiment: HL60 cell growth inhibition (trypan blue, 48 h); assay type: cell-based; conditions: for IC50: HL60, 48 hours
Procedure: A number of the compounds disclosed herein have been tested against the HL60 human leukemia cell line to assess their cytotoxic potential. These analogs were investigated in parallel with ET-18-OMe which was used as the reference compound. The methodologies used in this investigation were the same as described in A. Noseda, M. Berens, C. Piantadosi, and E. J. Modest, Lipids 22, 878-883, 1987. In brief, HL60 cells at a concentration of […] were incubated in wells with one milliliter medium with the experimental drug in parallel with the same concentration of cells with ET-18-OMe (standard) or EtOH (control). After 48 hours of incubation the cells were counted using the trypan blue dye exclusion technique to determine the effect of the drug on cell growth. The experimental drug and ET-18-OMe were tested at the same concentrations, e.g., 10, 5, 2.5 and 1.25 μM.

CEM-SS cells = experiment: CEM-SS cell growth (3H-TdR uptake); assay type: cell-based; conditions: Homo sapiens, 48 hours, N = 3, read-out: Inhibitory Concentration50 CEM-SS Cell Growth
Description: as §7
formation are x ± one SD., N = 4. CEMSS cell growth is measured in
suspension cultures by treating the cells with compound for 48 hours at
37° C. and then adding 1 μCi of ^3 HTdR (S.A. = 20 Ci/mmole
for 8 hours at 37° C. to measure DNA synthesis. IC50 values
for CEMSS growth are x of a representative experiment, N = 3.

reverse transcriptase = experiment: Reverse transcriptase activity in HIV-1 infected CEM-SS cells; assay type: cell-based, human immunodeficiency virus type 1 (HIV-1); conditions: for reverse transcriptase activity: in words; for activity at 0.2 µM / activity at 0.4 µM / activity at 2 µM: Human immunodeficiency virus 1, CEM-SS, read-out: RT Activity, % of Control
Procedure: as §5
(§8) In brief, CEM-SS cells were infected with HIV-1. At various times after infection (3, 6, 8, 10, 13 days) the overlay fluids were replaced with fresh medium. Overlay fluids replaced on days 8, 10 and 13 were saved at -80° C. to measure HIV-1 plaque forming units according to our described protocol above and RT activity (described by Poiesz et al., Proc. Natl. Acad. Sci. U.S.A. 77, 7415 (1980). Results are given in Table 8 below.

HIV-1 [4] = experiment: Infectious HIV-1 multiplication (plaque forming units); assay type: cell-based, human immunodeficiency virus type 1 (HIV-1); conditions: for infectious virus production: in words; for activity at 0.2 µM / activity at 0.4 µM / activity at 2 µM: read-out: Plaque Forming Units, % of Control
Procedure: as §8

[5] = Human immunodeficiency virus 1, 192 h, day 8
[6] = Human immunodeficiency virus 1, 240 h, day 10
[7] = Human immunodeficiency virus 1, 312 h, day 13

Q: Which IC50 (K562-4 cells) does the source give for `CCCCCCCCCCCCCCCCCCOCCC[N+](C)(C)CCO.[I-]` [XIII, 3-octadecyloxy-N,N-dimethyl-N-β-hydroxyethyl-1-propyl ammonium iodide] here?
A: 1.4 µM

Q: What about the IC50 (KB cells) of the same compound?
A: 0.7 ± 0.08 µM

Q: And the “sensitivity of MH1 C1 cells relative to 77 cells” value (MH1 C1 cells; MH1 C1 vs 77 cells)?
A: two to three times less sensitive to growth inhibition than 77 cells

Q: And the IC50 (MH1 C1 cells; Rattus norvegicus, MH1C1, MH1 C1)?
A: 2.9 µM

Q: And the IC50 (77 cells)?
A: 2.5 ± 0.9 µM

Q: And the 77/KB (77 cells)?
A: 4.3 ± 1.60

Q: For `CCCCCCCCCCCCCCCCOCC(C[N+](C)(C)CCO)OC(C)=O.[I-]` (racemic) [XI, (±)-3-hexadecyloxy-2-acetoxy-N,N-dimethyl-N-β-hydroxyethyl-1-propyl ammonium iodide], which IC50 (K562-4 cells) is on record?
A: 3.5 µM

Q: And the IC50 (KB cells)?
A: 0.43 ± 0.05 µM

Q: And the IC50 (77 cells)?
A: 1.35 ± 0.64 µM

Q: What about the 77/KB (77 cells) of the same compound?
A: 3.1 ± 1.51

Q: What about the IC50 (ChaGo cells; Homo sapiens) of the same compound?
A: 1.2 µM

Q: Which results are given for `CCCCCCCCCCCCCCCCCCOCC(O)C[N+](C)(C)CCO.[I-]` (racemic) [X, (±)-3-octadecyloxy-2-hydroxy-N,N-dimethyl-N-β-hydroxyethyl-1-propyl ammonium iodide]?
A: IC50 (K562-4 cells): 2.5 µM; IC50 (KB cells): 0.35 ± 0.05 µM; IC50 (77 cells): 1.33 ± 0.4 µM; 77/KB (77 cells): 2.9 ± 0.96; IC50 (ChaGo cells): 2.8 µM; IC50 (ChaGo cells; Homo sapiens): 1.7 µM

Q: Which results are given for `CCCCCCCCCCCCCCCCCCOCC(COP(=O)([O-])OCC[N+](C)(C)C)OC` (racemic) [ET-18-OMe, (±)-1-O-octadecyl-2-O-methylglycero-3-phosphocholine, reference compound]?
A: anti-HIV-1 activity (HIV-1 [1]; HIV-1 plaque formation, in words): potent anti-HIV activity; inhibition at 2 µM (HIV-1 [1]; Human immunodeficiency virus 1, 1 h): 64%; inhibition at 0.2 µM (HIV-1 [1]; Human immunodeficiency virus 1, 1 h, 0.2 μM, 60 minutes after infection): 0%; inhibition at 0.4 µM (HIV-1 [1]; Human immunodeficiency virus 1, 1 h, 0.4 μM, 60 minutes after infection): 0%; IC50 (HIV-1 [1]; Human immunodeficiency virus 1, CEM-SS monolayers, compound from sixty minutes after infection, N = 4, read-out: Inhibitory Concentration50 HIV-1 Plaque Formation): 1.4 ± 0.45 µM; inhibition at 0.2 µM (HIV-1 [2]; Human immunodeficiency virus 1, 0.2 μM, 30 minutes before infection, Table 6): 0%; inhibition at 0.4 µM (HIV-1 [2]; Human immunodeficiency virus 1, 0.4 μM, 30 minutes before infection, Table 6, read-out: Inhibition (%)): 9%; inhibition at 2 µM (HIV-1 [2]; Human immunodeficiency virus 1, 2.0 μM, 30 minutes before infection, Table 6): 45%; antiviral activity (HIV-1 plaque formation) (HIV-1 [2]; added before or after infection, in words): antiviral activity; IC50 ([3]; ET-18-OMe reference run in parallel with the analog of the line, 2880 min, read-out: ID50, ET-18-OMe): 1.9 µM and 2.3 µM and 2.2 µM; cytotoxic activity against HL60 ([3]; HL60, in words): shows an activity that is consistent with previous reports against the cell line tested; IC50 ([3]; Homo sapiens, HL-60, 48 h, ET-18-OMe reference run in parallel with the analog of the line, read-out: ID50, ET-18-OMe): 1.7 µM; IC50 ([3]; Homo sapiens, HL-60, 48 h, read-out: ID50 (the source's name)): 2.5 µM; IC50 (CEM-SS cells): 4.4 µM; reverse transcriptase activity (reverse transcriptase; 13 days): reverse transcriptase activity increases; activity at 0.2 µM (reverse transcriptase; 192 h, day 8): 54%; activity at 0.4 µM (reverse transcriptase; 192 h, day 8): 15%; activity at 2 µM (reverse transcriptase; 192 h, day 8): 6%; activity at 0.2 µM (reverse transcriptase; 240 h, day 10): 192%; activity at 0.4 µM (reverse transcriptase; 240 h, day 10): 90%; activity at 2 µM (reverse transcriptase; 240 h, day 10): 6%; activity at 0.2 µM (reverse transcriptase; 312 h, day 13): 94%; activity at 0.4 µM (reverse transcriptase; 312 h, day 13): 161%; activity at 2 µM (reverse transcriptase; 312 h, day 13): 174%; reverse transcriptase activity (reverse transcriptase; between 8 and 10 days): markedly inhibit infectious virus production and reverse transcriptase activity in a dose-dependent manner; infectious virus production (HIV-1 [4]; 13 days): infectious virus production is still inhibited; activity at 0.2 µM (HIV-1 [4]; [5]): 395%; activity at 0.4 µM (HIV-1 [4]; [5]): 25%; activity at 2 µM (HIV-1 [4]; [5]): 0%; activity at 0.2 µM (HIV-1 [4]; [6]): 287%; activity at 0.4 µM (HIV-1 [4]; [6]): 30%; activity at 2 µM (HIV-1 [4]; [6]): 33%; activity at 0.2 µM (HIV-1 [4]; [7]): 89%; activity at 0.4 µM (HIV-1 [4]; [7]): 35%; activity at 2 µM (HIV-1 [4]; [7]): 30%; infectious virus production (HIV-1 [4]; between 8 and 10 days): markedly inhibit infectious virus production
